Laboratory results taken from ChEMBL document CHEMBL4483862, “Open-source discovery of chemical leads for next-generation chemoprotective antimalarials” (2018).

Tested on: Plasmodium berghei
Assay: Luciferase/luciferin-expressing antifolate-resistant parasites were used to infect a culture of HepG2 cells that were pre-incubated with compounds. Infected hepatocytes emit light due to the luciferase reaction. Assay results are presented as the percent inhibition of light emission compared to control. […]
Assay type: functional
Settings: sporozoite; for IC90: read-out: LUCIFERASE INFECTION ASSAY - IC90

Row | SMILES | IC90 [µM] | also measured
1 | COc1ccc(-c2nc3c(c(=O)[nH]c(=O)n3Cc3ccccc3)n2Cc2ccccc2)cc1 | > 10 | IC50 (HEPG2TOX_HILL_SLOPE 7.19, HEPG2TOX_R_SQUARED 0.823, PBLUC_HILL_SLOPE 10.3, PBLUC_R_SQUARED 0.181, read-out: LUCIFERASE INFECTION ASSAY - IC50): 8.99 µM
2 | CC(C)c1ccc(NC2=NN=C(c3cccs3)CS2)cc1 | > 10 | IC50 (HEPG2TOX_HILL_SLOPE 7.09, HEPG2TOX_R_SQUARED 0.364, read-out: LUCIFERASE INFECTION ASSAY - IC50): > 10 µM
3 | COc1cc(-c2cnc3cnc(-c4cnn(C)c4)cn23)ccc1O | 3.64 | IC50 (HEPG2TOX_HILL_SLOPE 7.18, HEPG2TOX_R_SQUARED 0.736, PBLUC_HILL_SLOPE 4.69, PBLUC_R_SQUARED 0.709, read-out: LUCIFERASE INFECTION ASSAY - IC50): 2.28 µM
4 | CC(=O)c1cccc(-c2cnc3cnc(-c4cnn(C)c4)cn23)c1 | > 10.4 | IC50 (HEPG2TOX_HILL_SLOPE 7.11, HEPG2TOX_R_SQUARED 0.363, PBLUC_HILL_SLOPE 4.07, PBLUC_R_SQUARED 0.503, read-out: LUCIFERASE INFECTION ASSAY - IC50): 9.68 µM
5 | Cc1ccc2c(c1)/C(=N/Nc1nc3ccccc3s1)C(=O)N2 | 4.93 | IC50 (HEPG2TOX_HILL_SLOPE 7.15, HEPG2TOX_R_SQUARED 0.815, PBLUC_HILL_SLOPE 8.39, PBLUC_R_SQUARED 0.507, read-out: LUCIFERASE INFECTION ASSAY - IC50): 3.79 µM
6 | O=C1C=C/C(=N\Nc2ccc(F)cc2)c2cccnc21 | > 10 | IC50 (HEPG2TOX_HILL_SLOPE 7.02, HEPG2TOX_R_SQUARED 0.243, read-out: LUCIFERASE INFECTION ASSAY - IC50): > 10 µM
7 | CCOC(=O)/C=C/C(=O)OCC(=O)c1ccc(C2CCCCC2)cc1 | > 10 | IC50 (HEPG2TOX_HILL_SLOPE 7.18, HEPG2TOX_R_SQUARED 0.791, read-out: LUCIFERASE INFECTION ASSAY - IC50): > 10 µM
8 | CN(C)c1cccc(-c2cnc3cnc(-c4cccc(NS(C)(=O)=O)c4)cn23)c1 | > 8.1 | IC50 (HEPG2TOX_HILL_SLOPE 7.18, HEPG2TOX_R_SQUARED 0.638, PBLUC_HILL_SLOPE 3.24, PBLUC_R_SQUARED 0.204, read-out: LUCIFERASE INFECTION ASSAY - IC50): 4.82 µM
9 | Cc1cc(C)cc(Nc2ncnc3ccsc23)c1 | > 10 | IC50 (HEPG2TOX_HILL_SLOPE 6.98, HEPG2TOX_R_SQUARED 0.366, PBLUC_HILL_SLOPE 11.4, PBLUC_R_SQUARED 0.0607, read-out: LUCIFERASE INFECTION ASSAY - IC50): > 10 µM
10 | Cc1ccc(C(=O)c2sc(Nc3ccc(F)cc3)c(-c3nnc(N4CCOCC4)n3-c3ccccc3)c2N)cc1C | > 10 | IC50 (HEPG2TOX_HILL_SLOPE 7.05, HEPG2TOX_R_SQUARED 0.741, PBLUC_HILL_SLOPE 9.57, PBLUC_R_SQUARED 0.198, read-out: LUCIFERASE INFECTION ASSAY - IC50): 8.84 µM
11 | CCN(CC)Cc1nc(Oc2ccc(C)cc2OC)c2c(C)c(C)sc2n1 | > 10 | IC50 (HEPG2TOX_HILL_SLOPE 7.2, HEPG2TOX_R_SQUARED 0.121, read-out: LUCIFERASE INFECTION ASSAY - IC50): > 10 µM
12 | Cn1cc(CN2CC=C(c3ccccc3)CC2)c2ccccc21 | > 10 | IC50 (HEPG2TOX_HILL_SLOPE 7.11, HEPG2TOX_R_SQUARED 0.283, PBLUC_HILL_SLOPE 12.5, PBLUC_R_SQUARED 0.246, read-out: LUCIFERASE INFECTION ASSAY - IC50): 9.52 µM
13 | COC(=O)c1cnc(Sc2nnc(C(F)(F)F)n2C)c([N+](=O)[O-])c1 | > 9.08 | IC50 (HEPG2TOX_HILL_SLOPE 7.14, HEPG2TOX_R_SQUARED 0.788, read-out: LUCIFERASE INFECTION ASSAY - IC50): > 9.08 µM
14 | Cc1ccccc1NC(=O)Nc1nc(C(N)COCc2ccccc2)cs1 (stereo unspecified) | > 8.63 | IC50 (HEPG2TOX_HILL_SLOPE 7.21, HEPG2TOX_R_SQUARED 0.623, PBLUC_HILL_SLOPE 21.4, PBLUC_R_SQUARED 0.0439, read-out: LUCIFERASE INFECTION ASSAY - IC50): 7.8 µM
15 | CCn1c(-c2ccccc2)c(C(=O)COc2ccc(Cl)c(C)c2)c2ccccc21 | > 10 | IC50 (HEPG2TOX_HILL_SLOPE 7.06, HEPG2TOX_R_SQUARED 0.488, PBLUC_HILL_SLOPE 0.342, PBLUC_R_SQUARED 0.631, read-out: LUCIFERASE INFECTION ASSAY - IC50): 0.357 µM
16 | O=C(c1cccnc1)N1CCc2nc(NCc3cccc(Oc4ccccc4)c3)ncc2C1 | > 7.54 | IC50 (HEPG2TOX_HILL_SLOPE 6.99, HEPG2TOX_R_SQUARED 0.608, read-out: LUCIFERASE INFECTION ASSAY - IC50): > 7.54 µM
17 | CC(=O)c1cccc(-c2cnc3ccc(-c4cccc(OC(F)(F)F)c4)nn23)c1 | > 10 | IC50 (HEPG2TOX_HILL_SLOPE 7.2, HEPG2TOX_R_SQUARED 0.65, PBLUC_HILL_SLOPE 0.974, PBLUC_R_SQUARED 0.617, read-out: LUCIFERASE INFECTION ASSAY - IC50): 1.38 µM

Row | SMILES | IC90 [µM] | also measured
18 | CCc1ccc(NC(=O)c2cc(OC)c(OC)c(OC)c2)cc1[N+](=O)[O-] | > 10 | IC50 (HEPG2TOX_HILL_SLOPE 7.15, HEPG2TOX_R_SQUARED 0.493, PBLUC_HILL_SLOPE 1.31, PBLUC_R_SQUARED 0.625, read-out: LUCIFERASE INFECTION ASSAY - IC50): 6.01 µM
19 | COc1ccc(Cn2c(C)nc3c(cnn3-c3ccc(Cl)cc3)c2=O)cc1 | > 8.67 | IC50 (HEPG2TOX_HILL_SLOPE 7.21, HEPG2TOX_R_SQUARED 0.304, PBLUC_HILL_SLOPE 6.35, PBLUC_R_SQUARED 0.427, read-out: LUCIFERASE INFECTION ASSAY - IC50): 7.48 µM
20 | Oc1cccc(-c2cnc3cnc(-c4ccccc4)cn23)c1 | > 11.5 | IC50 (HEPG2TOX_HILL_SLOPE 7.12, HEPG2TOX_R_SQUARED 0.466, PBLUC_HILL_SLOPE 2.24, PBLUC_R_SQUARED 0.572, read-out: LUCIFERASE INFECTION ASSAY - IC50): 7.48 µM
21 | COc1cc(-c2cnc3cnc(-c4cccc(NS(C)(=O)=O)c4)cn23)cc(OC)c1OC | 6.6 | IC50 (HEPG2TOX_HILL_SLOPE 7.03, HEPG2TOX_R_SQUARED 0.532, PBLUC_HILL_SLOPE 3.63, PBLUC_R_SQUARED 0.378, read-out: LUCIFERASE INFECTION ASSAY - IC50): 3.61 µM
22 | CCCc1cc(=O)n2nc(COc3ccccc3)c(-c3ccccc3)c2[nH]1 | 5.37 | IC50 (HEPG2TOX_HILL_SLOPE 7.2, HEPG2TOX_R_SQUARED 0.777, PBLUC_HILL_SLOPE 5.33, PBLUC_R_SQUARED 0.154, read-out: LUCIFERASE INFECTION ASSAY - IC50): 3.56 µM
23 | CS(=O)(=O)Nc1cccc(-c2cn3c(-c4cccc(O)c4)cnc3cn2)c1 | 8.16 | IC50 (HEPG2TOX_HILL_SLOPE 7.05, HEPG2TOX_R_SQUARED 0.671, PBLUC_HILL_SLOPE 23.9, PBLUC_R_SQUARED 0.257, read-out: LUCIFERASE INFECTION ASSAY - IC50): 7.45 µM
24 | Cc1nc(C(=N)NOC(=O)c2c(-c3c(Cl)cccc3Cl)noc2C)cs1 | 1.24 | IC50 (HEPG2TOX_HILL_SLOPE 7.11, HEPG2TOX_R_SQUARED 0.0768, PBLUC_HILL_SLOPE 8.1, PBLUC_R_SQUARED 0.284, read-out: LUCIFERASE INFECTION ASSAY - IC50): 0.945 µM
25 | N=C(NOC(=O)Nc1cccc(C(F)(F)F)c1)c1ccc(Oc2c(Cl)cncc2Cl)cc1 | > 6.8 | IC50 (HEPG2TOX_HILL_SLOPE 7.08, HEPG2TOX_R_SQUARED 0.63, PBLUC_HILL_SLOPE 1.44, PBLUC_R_SQUARED 0.448, read-out: LUCIFERASE INFECTION ASSAY - IC50): 4.93 µM
26 | Cn1cc(Br)c(-c2cccc(NC(=O)Nc3ccc(Cl)cc3)c2)n1 | > 8.13 | IC50 (HEPG2TOX_HILL_SLOPE 7.05, HEPG2TOX_R_SQUARED 0.913, PBLUC_HILL_SLOPE 7.26, PBLUC_R_SQUARED 0.779, read-out: LUCIFERASE INFECTION ASSAY - IC50): > 8.13 µM
27 | CN(C)c1ccccc1-c1cn2c(-c3ccc4ncccc4c3)cnc2cn1 | > 9.03 | IC50 (HEPG2TOX_HILL_SLOPE 7.2, HEPG2TOX_R_SQUARED 0.832, read-out: LUCIFERASE INFECTION ASSAY - IC50): > 9.03 µM
28 | CC(=O)NCc1ccc(-c2csc(NC(=O)c3cc4cnn(C(C)C)c4nc3C)n2)s1 | > 10 | IC50 (HEPG2TOX_HILL_SLOPE 7.15, HEPG2TOX_R_SQUARED 0.462, PBLUC_HILL_SLOPE 31.4, PBLUC_R_SQUARED 0.13, read-out: LUCIFERASE INFECTION ASSAY - IC50): 9.38 µM
29 | COc1ccc(-c2cnc3ccc(Cc4ccc(F)cc4)nn23)cc1OC | 6.11 | IC50 (HEPG2TOX_HILL_SLOPE 7.18, HEPG2TOX_R_SQUARED 0.189, PBLUC_HILL_SLOPE 3.8, PBLUC_R_SQUARED 0.0747, read-out: LUCIFERASE INFECTION ASSAY - IC50): 3.43 µM
30 | Cc1[nH]nc2ccnc(-c3cccc(Cl)c3)c12 | > 10 | IC50 (HEPG2TOX_HILL_SLOPE 7.21, HEPG2TOX_R_SQUARED 0.311, read-out: LUCIFERASE INFECTION ASSAY - IC50): > 10 µM
31 | NC(=O)c1cc(NC(=O)c2cccs2)ccc1N1CCCCC1 | 4.83 | IC50 (HEPG2TOX_HILL_SLOPE 7.03, HEPG2TOX_R_SQUARED 0.757, PBLUC_HILL_SLOPE 7.92, PBLUC_R_SQUARED 0.39, read-out: LUCIFERASE INFECTION ASSAY - IC50): 3.66 µM
32 | O=C(Nc1ccc(SC(F)(F)F)cc1)N1CCN(c2nc(-c3ccccc3)ns2)CC1 | > 7.09 | IC50 (HEPG2TOX_HILL_SLOPE 7.08, HEPG2TOX_R_SQUARED 0.48, PBLUC_HILL_SLOPE 1.8, PBLUC_R_SQUARED 0.469, read-out: LUCIFERASE INFECTION ASSAY - IC50): 3.31 µM
33 | O=C1/C(=C/c2ccc(F)cc2)CCC/C1=C\c1ccc(F)cc1 | > 10.6 | IC50 (HEPG2TOX_HILL_SLOPE 7.08, HEPG2TOX_R_SQUARED 0.955, read-out: LUCIFERASE INFECTION ASSAY - IC50): > 10.6 µM
